In patent publication US20100261876A1, “NOVEL METHODS OF […] FOR T[…] PEPTIDES” (priority 2007, published 2010):
Where a SMILES comes first, the peptide text is derived from it.

Columns and labels:
[1] = system: virus isolates (IIIB, 030, 060 and 098); experiment: In vitro resistance selection, geometric mean over isolates; assay type: cell-based, HIV; conditions: compared to SEQ ID NO:2
Description: Biological properties of the HIV fusion inhibitor peptides provided herein have been compared with other recognized, effective antiviral agents, including SEQ ID NO: 2 (enfuvirtide). In particular, in vitro resistance comparison studies were performed between the novel SEQ ID NO:9 compound of interest and established antiviral agent SEQ ID NO:2, described in detail as follows: MT2 cells were infected with virus isolates (IIIB, 030, 060 and 098) and cultured in increasing concentrations of SEQ ID NO:2 (enfuvirtide) or SEQ ID NO:9 to select for resistance. The initial peptide concentration was approximately 2 times the IC50 of each peptide against the corresponding wild type isolate. Peptide concentrations were maintained by adding fresh peptide every 1-3 days. Cultures were monitored for cytopathic effect (CPE) using standard techniques and when maximal CPE was achieved, a small aliquot of virus was used for subsequent rounds of infection. Peptide concentrations were increased 2 to 4-fold depending on the length of time in culture when compared to the growth rate of wild type virus. During the course of selection, peptide-free virus stocks were also collected. Peptide-free virus stocks were characterized for gp41 genotypic changes by dideoxy sequencing chemistries and phenotypic susceptibility was determined using a cMAGI infectivity assay.

[2] = Intravenous pharmacokinetics in cynomolgus monkeys; assay type: in vivo, cynomolgus monkeys (Macaca fasicularis); conditions: relative to base sequence SEQ ID NO:5
Description: For determining pharmacokinetic properties, an HIV fusion inhibitor peptide or a base sequence from which an HIV fusion inhibitor peptide is derived was dosed intravenously in cynomolgus monkeys (Macaca fasicularis) (other animal models may be used for determining pharmacokinetic properties, as known in the art). At various times post-dose, blood samples were drawn and plasma isolated by centrifugation. Plasma samples were stored frozen until analysis by LC-MS (liquid chromatography/mass spectrometry) in the electrospray, positive-ion mode. An HIV fusion inhibitor or base sequence was eluted from a C18 or C8 HPLC column with a gradient of acetonitrile in a buffer of 10 mM ammonium acetate, pH 6.8. At the time of analysis, plasma samples were deproteinated with either two or three volumes of acetonitrile containing 0.5% formic acid. Duplicate calibration standards in cynomolgus plasma samples were prepared at the same time as the samples and analyzed before and after the samples containing either HIV fusion inhibitor peptide or base sequence. Pharmacokinetic properties were calculated from the plasma concentration-time data using either mono-exponential or bi-exponential mathematical models. Models were derived by non-linear least squares optimization. A 1/C^2 weighting of concentrations was used. […]

[3] = Stability in aqueous solution (PBS), peptide remaining in solution by HPLC; assay type: physicochemical; conditions: phosphate-buffered saline (PBS), 10 mg/ml in PBS, about pH 7.3 to 7.5, 37° C., read-out: peptide remaining detectable in solution at 1 week
HIV-Res = experiment: Magi-CCR5 infectivity assay, resistant viral isolate; assay type: cell-based, HIV-1; conditions: compared to SEQ ID NO:6 / 7
Description: Assessment of biological properties included measurement of antiviral activity against HIV-1 strains. In determining antiviral activity (e.g., one measure being the ability to inhibit transmission of HIV to a target cell) of the HIV fusion inhibitor peptides, an in vitro assay which has been shown, by data generated using peptides derived from the HR regions of HIV gp41, to be predictive of antiviral activity observed in vivo was used. […] These assays score for reduction of infectious virus titer employing the indicator cell lines MAGI or the CCR5 expressing derivative cMAGI. Both cell lines exploit the ability of HIV-1 tat to transactivate the expression of a β-galactosidase reporter gene driven by the HIV-LTR. The β-gal reporter has been modified to localize in the nucleus and can be detected with the X-gal substrate as intense nuclear staining within a few days of infection. […] The number of infected cells for each control and peptide dilution was determined with the CCD-imager, and then the IC50 was calculated (expressed in μg/ml).
Viruses resistant to the antiviral activity of a peptide consisting of a base sequence can be produced using standard laboratory methods. […] The cultures are maintained and monitored until syncytia are present. […] The second round of culture is maintained and monitored for presence of virus resistant to the antiviral activity of the peptide. […]

Row | Structure (SMILES) | barrier to development of resistance in vitro [1] | biological half-life, in words [2] | remaining at 168 h, 10 mg/ml [3] [%] | resistance profile (activity against the resistant viral isolate Res) (HIV-Res)
1 | CC[C@H](C)[C@H](NC(=O)[C@H](C)NC(=O)[C@H](CCCNC(=N)N)NC(=O)[C@H](CC(=O)O)NC(=O)[C@H](Cc1c[nH]c2ccccc12)NC(=O)[C@H](C)NC(=O)[C@H](CCC(=O)O)NC(=O)[C@H](Cc1c[nH]c2ccccc12)NC(=O)[C@@H](NC(=O)[C@@H](NC(C)=O)[C@@H](C)O)[C@@H](C)O)C(=O)N[C@@H](C)C(=O)N[C@@H](CCC(=O)O)C(=O)N[C@@H](Cc1ccc(O)cc1)C(=O)N[C@@H](C)C(=O)N[C@@H](C)C(=O)N[C@@H](CCCNC(=N)N)C(=O)N[C@H](C(=O)N[C@@H](CCC(=O)O)C(=O)N[C@@H](C)C(=O)N[C@@H](CC(C)C)C(=O)N[C@@H](CC(C)C)C(=O)N[C@@H](CCCNC(=N)N)C(=O)N[C@@H](C)C(=O)N[C@@H](CC(C)C)C(=O)N[C@@H](CCC(N)=O)C(=O)N[C@@H](CCC(=O)O)C(=O)N[C@@H](CCC(N)=O)C(=O)N[C@@H](CCC(N)=O)C(=O)N[C@@H](CCC(=O)O)C(=O)N[C@@H](CCCCN)C(=O)N[C@@H](CC(N)=O)C(=O)N[C@@H](CCC(=O)O)C(=O)N[C@@H](C)C(=O)N[C@@H](C)C(=O)N[C@@H](CC(C)C)C(=O)N[C@@H](CCCNC(=N)N)C(=O)N[C@@H](CCC(=O)O)C(=O)N[C@@H](CC(C)C)C(N)=O)[C@@H](C)CC [compound 9] (Ac-TTWEAWDRAIAEYAARIEALLRALQEQQEKNEAALREL-NH2) | higher barrier to development of resistance | increased biological half-life | ≥ 90 | good resistance profile
2 | CC[C@H](C)[C@H](NC(=O)[C@H](C)NC(=O)[C@H](CCCNC(=N)N)NC(=O)[C@H](CC(=O)O)NC(=O)[C@H](Cc1c[nH]c2ccccc12)NC(=O)[C@H](C)NC(=O)[C@H](CCC(=O)O)NC(=O)[C@H](Cc1c[nH]c2ccccc12)NC(=O)[C@@H](NC(=O)[C@@H](NC(C)=O)[C@@H](C)O)[C@@H](C)O)C(=O)N[C@@H](C)C(=O)N[C@@H](CCC(=O)O)C(=O)N[C@@H](Cc1ccc(O)cc1)C(=O)N[C@@H](C)C(=O)N[C@@H](C)C(=O)N[C@@H](CCCNC(=N)N)C(=O)N[C@H](C(=O)N[C@@H](CCC(=O)O)C(=O)N[C@@H](C)C(=O)N[C@@H](CC(C)C)C(=O)N[C@@H](CC(C)C)C(=O)N[C@@H](CCCNC(=N)N)C(=O)N[C@@H](C)C(=O)N[C@@H](C)C(=O)N[C@@H](CCC(N)=O)C(=O)N[C@@H](CCC(=O)O)C(=O)N[C@@H](CCC(N)=O)C(=O)N[C@@H](CCC(N)=O)C(=O)N[C@@H](CCC(=O)O)C(=O)N[C@@H](CCCCN)C(=O)N[C@@H](CC(C)C)C(=O)N[C@@H](CCC(=O)O)C(=O)N[C@@H](C)C(=O)N[C@@H](C)C(=O)N[C@@H](CC(C)C)C(=O)N[C@@H](CCCNC(=N)N)C(=O)N[C@@H](CCC(=O)O)C(=O)N[C@@H](CC(C)C)C(N)=O)[C@@H](C)CC [compound 10] (Ac-TTWEAWDRAIAEYAARIEALLRAAQEQQEKLEAALREL-NH2) | – | increased biological half-life | – | good resistance profile
